Measured values reported in patent US10238631B2, “Sesquiterpene derivatives and their use in inflammation or cancer treatment” (Academia Sinica, priority 2014, dated 2019).
Read-outs that look alike come from different tables or passages of the source.

How the values were obtained:
[1] = tested on: MeWo (No NRAS or BRAF mutation); assay: MTT cell viability assay, MeWo melanoma; type: cell-based, human; details: Homo sapiens, MeWo, 24 h
Protocol: (§1) Normal or cancer cells (2×10^3 to 1×10^4 cells/well) were seeded in 96-well plate for overnight and treated with different compounds for 24 h to 72 h. Cells growth were determined by MTT-based colorimetric assays according to. Viability of the test cells treated with vehicle (0.5% DMSO) only was defined as 100% viable. Survival of cells after treatment with DETDs was calculated using the following formula: viable cell number (%)=OD570 (treated cell culture)/OD570 (vehicle control)×100.
(§2) Several genes are involved in melanoma development and pathology; specifically, mutation in V-raf murine sarcoma viral oncogene homolog B1 (B-RAF) occurs approximately 50-60% and in neuroblastoma RAS viral oncogene homolog (N-RAS) occurs about 30% of malignant melanomas. A spectrum of wild-type or mutated melanoma cell lines including B16-F10, MeWo, A375, A2058, HTB-68, and melanocyte were used to study anti-melanoma cell proliferation activity of parental phytocompound DET and newly synthesized DETDs.

[2] = tested on: M10 normal mammary epithelial cells; assay: MTT cell viability assay, M10 normal cells; type: cell-based, human; details: Homo sapiens, Epithelial cell, 24 h
Protocol: as §1
(§3) Sixty DETDs were derived from parental compound […] and tested for anti-breast cancer cell activity.

[3] = tested on: LPS-induced nitric oxide (NO) production in RAW 264.7 cells; assay: Nitric oxide production in LPS-stimulated macrophages (Griess); type: cell-based, mouse; details: Mus musculus; LPS-stimulated RAW264.7, nitrite 24 h after LPS
Protocol: (§4) Marcophages (2×10^5 cells/well in 96-well plate) were treated with compounds for 1 h, then incubated further for 24 h with or without the presence of […] LPS in the cultural medium. Nitrite levels in cell culture medium were determined by the Griess reaction method. In parallel to the Griess assays, macrophage cell viabilities were determined using the MTT based colorimetric assay.
LPS from the outer membrane of Gram-negative bacteria can induce mRNA or protein levels of inducible nitric oxide synthase (iNOS), which catalyzes oxidative deamination of L-arginine to produce nitric oxide (NO). Once NO is predominantly produced, it interacts with superoxide anion and generates highly reactive oxidants resulting in cellular inflammation, DNA, protein and tissue damages, carcinogenesis, and antiapoptosis. We used in vitro LPS stimulated inflammation in RAW264.7 cell system to evaluate the effect of DET and its derivatives DETDs on NO production by determination of nitrite level (equivalent to NO level) in culture medium 24 h after LPS treatment.

[4] = tested on: B16-F10 (NRAS mutation); assay: MTT cell viability assay, B16-F10 melanoma; type: cell-based; details: Mus musculus, B16-F10, 24 h, read-out: IC50 on cell viability, B16-F10 (NRAS mutation)
Protocol: as §1, §2

[5] = tested on: MDA-MB-231 (ER−, PR−, Her2−) human breast cancer cells; assay: MTT cell viability assay, MDA-MB-231 cells; type: cell-based; details: Homo sapiens, MDA-MB-231, 24 h, read-out: IC50 on cell viability, MDA-MB-231 (ER−, PR−, Her2−)
Protocol: as §1, §3

[6] = tested on: A375 (BRAF mutation); assay: MTT cell viability assay, A375 melanoma; type: cell-based, human; details: Homo sapiens, A-375, 24 h, read-out: IC50 on cell viability, A375 (BRAF mutation)
Protocol: as §1, §2
To investigate whether or not DETD-35 show synergism with PLX4032 against A375 melanoma cells, we performed anti-proliferation assay using MTT reagent to obtain IC50 of each compound. […] The synergistic effect was quantified by combination index (CI) analysis as stated above.

[7] = tested on: RAW264.7 (normal macrophage); assay: MTT cell viability assay, RAW264.7 macrophages; type: cell-based, mouse; details: Mus musculus, RAW264.7, 24 h
Protocol: as §1, §4

[8] = tested on: MCF-7 (ER+, Her2−) human breast cancer cells; assay: MTT cell viability assay, MCF-7 cells; type: cell-based; details: MCF7, 24 h, read-out: IC50 on cell viability, MCF-7 (ER+, Her2−)
Protocol: as §1, §3

[9] = tested on: HTB-68 (NRAS mutation); assay: MTT cell viability assay, HTB-68 melanoma; type: cell-based, human; details: Homo sapiens, 24 h
Protocol: as §1, §2

[10] = tested on: A2058 (BRAF mutation); assay: MTT cell viability assay, A2058 melanoma; type: cell-based, human; details: Homo sapiens, A2058, 24 h
Protocol: as §1, §2

[11] = tested on: Melanocyte (Normal cells); assay: MTT cell viability assay, normal melanocytes; type: cell-based, human; details: Homo sapiens, Melanocyte, 24 h
Protocol: as §1, §2

[12] = tested on: TS/A (ER+, Her2−) murine mammary cancer cells; assay: MTT cell viability assay, TS/A cells; type: cell-based; details: Mus musculus, 24 h, read-out: IC50 on cell viability, TS/A (ER+, Her2−)
Protocol: as §1, §3

| Compound | IC50 [1] [µM] | IC50 [2] [µM] | IC50 [3] [µM] | IC50 ([4]; 24 h) [µM] | IC50 [5] [µM] | IC50 ([6]; 24 h, MTT) [µM] | IC50 [7] [µM] | IC50 [8] [µM] | IC50 [9] [µM] | IC50 [10] [µM] | IC50 [11] [µM] | IC50 [12] [µM] | IC50 [4] [µM] | IC50 [6] [µM] |
| --- | --- | --- | --- | --- | --- | --- | --- | --- | --- | --- | --- | --- | --- | --- |
| C=C1C(=O)OC2CC3=C[C@@H](C/C(C)=C/C(OC(=O)/C=C(\C)C(C)C)[C@H]12)OC3=O (some centres unmarked) [DETD-12] | > 10 | > 7.5 | 3.2 | 7.2 | 7 | > 10 | > 10 | 4.2 | > 10 | > 10 | > 10 | 3.3 |  |  |
| C=C1C(=O)OC2CC3=C[C@@H](C/C(C)=C/C(OC(=O)C(C)CCC)[C@H]12)OC3=O (some centres unmarked) [DETD-20] | > 10 | > 7.5 | 4.2 | 9 | 5.8 | > 10 | > 10 | 3.5 | > 10 | > 10 | > 10 | 2.2 |  |  |
| C=C1C(=O)OC2CC3=C[C@@H](C/C(C)=C/C(OC(=O)CC(C)C)[C@H]12)OC3=O (some centres unmarked) [DETD-10] | > 10 | > 7.5 | 1.8 | 6 | 5.9 | > 10 | > 10 | 3.4 | > 10 | > 10 | > 10 | 2.7 |  |  |
| C=C1C(=O)OC2CC3=C[C@@H](C/C(C)=C/C(OC(=O)/C(C)=C/CC)[C@H]12)OC3=O (some centres unmarked) [DETD-5] | > 10 | > 7.5 | 2.4 | 4.7 | 4.6 | 4.1 | > 10 | 2.4 | 7.8 | 5.8 | > 10 | 1.6 |  |  |
| C=C1C(=O)OC2CC3=C[C@@H](C/C(C)=C/C(OC(=O)c4cc5ccccc5o4)[C@H]12)OC3=O (some centres unmarked) [DETD-40] | > 10 | > 7.5 | 4.5 | 4.3 | 4.9 | > 10 | > 10 | 6.1 | > 10 | > 10 | > 10 | 3.1 |  |  |
| C=C1C(=O)OC2CC3=C[C@@H](C/C(C)=C/C(OC(=O)C4CCCC4)[C@H]12)OC3=O (some centres unmarked) [DETD-37] | > 10 | > 7.5 | 2 | 3.8 | 6.7 | > 10 | > 10 | 6.2 | > 10 | > 10 | > 10 | 3 |  |  |
| C=C1C(=O)OC2CC3=C[C@@H](C/C(C)=C/C(OC(=O)C4CCCCC4)[C@H]12)OC3=O (some centres unmarked) [DETD-38] | > 10 | > 7.5 | 1.7 | 3.9 | 5.2 | 5.1 | > 10 | 4.6 | 9.5 |  | > 10 | 2.6 |  |  |
| C=C1C(=O)OC2CC3=C[C@@H](C/C(C)=C/[C@@H](OC(=O)Cc4coc5ccccc45)[C@H]12)OC3=O (some centres unmarked) [DETD-59] | > 10 | > 7.5 | > 10 | 6.3 | 5.1 | 2.6 | > 10 | > 7.5 | 4.8 | 6 | > 10 | 3.5 |  |  |
| C=C1C(=O)OC2CC3=C[C@@H](C/C(C)=C/C(O)[C@H]12)OC3=O (some centres unmarked) [DETD-3] | > 10 | > 7.5 | > 10 | > 10 | > 7.5 | > 10 | > 10 | > 7.5 | > 10 | > 10 | > 10 | 7.5 |  |  |
| C=C1C(=O)OC2CC3=C[C@@H](C/C(C)=C/C(OC(=O)/C=C/c4cccc(OCC)c4)[C@H]12)OC3=O (some centres unmarked) [DETD-50] | 9.3 | > 7.5 | > 10 | 9.4 | 7.7 | 4.6 | > 10 | > 7.5 | > 10 | 8.7 | > 10 | 4.4 |  |  |
| C=C1C(=O)OC2CC3=C[C@@H](C/C(C)=C/C(OC(=O)Cc4ccc(OC)cc4)[C@H]12)OC3=O (some centres unmarked) [DETD-44] | > 10 | > 7.5 | 3.4 | 7.3 | 7 | 3.5 | > 10 | > 7.5 | 7.6 | 8.5 | > 10 | 2.2 |  |  |
| C=C1C(=O)OC2CC3=C[C@@H](C/C(C)=C/C(OC(=O)/C=C/c4cccc(C(F)(F)F)c4)[C@H]12)OC3=O (some centres unmarked) [DETD-48] | > 10 | > 7.5 | > 10 | > 10 | 8.2 | 6.9 | > 10 | > 7.5 | > 10 | > 10 | > 10 | > 7.5 |  |  |
| C=C1C(=O)OC2CC3=C[C@@H](C/C(C)=C/C(OC(C)=O)[C@H]12)OC3=O (some centres unmarked) [DETD-17] | > 10 | > 7.5 | 2 |  | > 7.5 |  | > 10 | 6.7 | > 10 | > 10 | > 10 | 3.5 | > 10 | > 10 |
| C=C(CC)C(=O)OC1/C=C(\C)C[C@@H]2C=C(CC3OC(=O)C(=C)[C@@H]13)C(=O)O2 (some centres unmarked) [DETD-19] | > 10 | > 7.5 | 3.8 | 7.8 | 4.6 | > 10 | > 10 | 3.5 | > 10 | > 10 | > 10 | 1.7 |  |  |
| C=C1C(=O)OC2CC3=C[C@@H](C/C(C)=C/C(OC(=O)CCc4cccc5ccccc45)[C@H]12)OC3=O (some centres unmarked) [DETD-51] | > 10 | > 7.5 | > 10 | > 10 | > 15 | > 10 | > 10 | > 7.5 | > 10 | > 10 | > 10 | > 7.5 |  |  |
| C=C1C(=O)OC2CC3=C[C@@H](C/C(C)=C/C(OC(=O)C(CC)CCCC)[C@H]12)OC3=O (some centres unmarked) [DETD-21] | > 10 | > 7.5 | 4.7 | > 10 | > 7.5 | > 10 | > 10 | 4.5 | > 10 | > 10 | > 10 | 4 |  |  |
| C=C1C(=O)OC2CC3=C[C@@H](C/C(C)=C/[C@H](OC(=O)Cc4cccc5ccccc45)[C@H]12)OC3=O (some centres unmarked) [DETD-62] | > 10 | > 7.5 | > 10 | 9.3 | 7.4 | 5 | > 10 | > 7.5 | 9 | 8.7 | > 10 | > 7.5 |  |  |
